# In patent publication US9175055B2, “Use of fibromodulin and lumican for increasing muscle mass” (ASSOCIATION FRANCAISE CONTRE LES MYOPATHIES, priority 2011, dated 2015):
# Values joined by “and” are separate entries in the source; they are usually repeats but may differ in a detail not shown here. Equal values may be shown once.
# How the values were obtained:
# mature myostatin = biological target: T1, mature myostatin (Mus musculus, UniProt O08689); assay: ELISA-type test of direct interaction of biotinylated fibromodulin peptides with coated myostatin; type: binding; settings: FIG. 3
# T1 sequence (O08689 268-376): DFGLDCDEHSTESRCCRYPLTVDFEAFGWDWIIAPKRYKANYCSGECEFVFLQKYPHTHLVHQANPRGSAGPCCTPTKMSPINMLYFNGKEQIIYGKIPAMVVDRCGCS
# From the text: The ELISA test (Enzyme Linked ImmunoSorbent Assay) is a test for detecting and/or assaying a protein present in a biological fluid. In the technique known as “sandwich” assay, the wells of a microtiter plate are covered with a capture antibody capable of binding specifically to the desired antigen. During this operation called “coating”, the capture antibody binds to the plastic of the wells by electrostatic interaction. The capture antibody ensures the specificity of the test. The solution to be tested is then deposited into the wells of the microtiter plate and, if the desired antigen is present, it will bind specifically to the capture antibody. A second antibody, the tracer antibody, capable of binding to the captured antigen is then added to the wells, and the unbound tracer antibodies are eliminated by rinsing. The tracer antibody is coupled to an enzyme catalyzing the formation of a colored product.
# The principle of this technique was used to study the direct interaction of the mature myostatin with the peptides 69-101 Fmod Biotin and 69-101 Fmod Biotin mutated (see sequences below). For this, 3 μl of myostatin at a concentration of 100 ng/μl are taken up in 50 μl of carbonate buffer and added to each well of the assay plate (R&D Systems DY990). After an overnight incubation at 4° C., the plate is washed with 100 μl of PBS-Tween (0.05% Tween 20), then the blocking step to saturate non-specific sites is carried out for 2 hours at room temperature with 100 μl of PBS and 6% of milk per well. Five successive washes with 200 μl of PBS-Tween (0.05% Tween 20) are performed and increasing amounts of biotinylated fibromodulin peptides are then deposited (100 μl final in PBS) and the plate is incubated for 1 hour at 37° C. For the positive control, an antibody of goat anti-myostatin (≠AF788, R&D Systems), which was deposited in the control wells and incubated for 1 hour at 1/100th (0.1 mg/ml) was […]. The wells were then washed 5 times with PBS-Tween (0.05% Tween 20). To detect binding of the biotinylated peptides to MSTN, streptavidin-HRP (≠N100, Pierce) was used at 1/20,000th. was added to the wells. For the controls points with the goat anti-myostatin antibody, an HRP-marked (≠ab6885, Abcam) polyclonal secondary donkey anti-goat antibody was added (at 1/4000th)). After five washes, adding the peroxidase substrate, the TMB Substrate Reagent Set (Tetramehylbenzidine, OptEIA, ≠555214) allows the obtention of a colored reaction proportional to the quantity of HRP present in the wells. The reaction is stopped after 20 minutes by addition of sulfuric acid 2N, and the plate is read at 450 nm on a Discovery HT-R spectrophotometer (Bio-TEK).
# Buffer Composition: 0.1 M carbonate buffer: 4.2 g NaHCO3, 1.78 g of […] in 500 ml of H20 MilliQ, pH 9,5. Storage at 4° C.
# [1] = biological target: T2, recombinant murine myostatin (Mus musculus, UniProt O08689); assay: Inhibition of myostatin activity, pGL3-(CAGA)12-Luc reporter in HEK293T cells; type: cell-based; settings: 2.5 nM myostatin, FIG. 1 and 2
# T2 sequence (O08689 268-376): T1 sequence (O08689 268-376)
# From the text: The plasmidic construction pGL3-(CAGA)12-firefly luciferase (notated pGL3-(CAGA)12-Luc) obtained by MTA of the Pr. Carl-Henrik Heldin (Ludwig Institute for Cancer Research, Sweden) contains 12 CAGA copies of the consensus SBE (Smad Binding Element) consensus sequence and allows to indirectly measure the binding of myostatin to its receptor. Indeed, when myostatin binds to the receptor Activin IIb, the Smad 3 and 4 proteins are activated and will bind to the 12 CAGA copies. The promoter of the cassette pGL3-(CAGA)12-Luc is thus activated, which results in luciferase production. The myostatin/Activin IIb binding can be followed, therefore, by measuring the luciferase.
# The ability of the peptides to inhibit the in vitro activity of the myostatin has been evaluated on embryonic human kidney cells 293T by means of the pGL3-(CAGA)12-Luc construction. For this, 350,000 293T cells were placed per well in a 24-well plate. After 24 hours of culture, the cells were transfected with a mixture of 8 μl de PEI (PEI 25 kDa; Sigma) and 2 μg of plasmide pGL3-(CAGA)12-Luc/well. […] Twenty-four hours after transfection, 2.5 nM of recombinant murine myostatin, mixed or not mixed with various quantities of fibromodulin or lumican peptides were added to each well. […] Twenty-four hours after incubation, the cells were lysed, then collected to be assayed for luciferase activity and the quantity of protein.
# mdx mice [2] = assay: Muscle weight on D20 after intramuscular injection into Tibialis Anterior of mdx mice; type: in vivo; settings: D20, individual mdx mice
# Experimental: (§1) Mdx mice (C57BL/10ScSn-DmD^max/J) from colonies maintained at Genethon. Mice aged at least six weeks were used. All experiments were performed in accordance with European ethical rules regarding the use of animals for experimental research.
# (§2) Intramuscular injection is performed on animals anesthetized at the tibialis anterior muscle (TA). The injected volume was around 20-35 μl. The injection is performed in the middle of TA Left (TAG). An equal volume of NaCl 150 mM/15 μM ZnCl2 was systematically injected into the right anterior tibialis (TAD) to serve as a control. After a specified number of days after the injection, the TAD and TAG were taken after sacrificing the mice, which were weighed and frozen for histological studies.
# The peptide fibromodulin (Fmod, SEQ ID NO: 2) and lumican (mLumican, SEQ ID NO: 5) were dissolved in water and stored at −80° C. For the injections, the preparation procedure is as follows: 24-40 hours before the injection, the desired quantity of peptide is removed from the stock solution and mixed with a solution of zinc chloride (ZnCl2) and 150 mM NaCl so as to have a final concentration of 15 μM of zinc. The peptide was stored at 4° C. until injection. […]
# On D20, the mice were sacrificed and the weight of the TAG and TAD muscles was measured.
# mdx mice [3] = assay: Comparative muscle hypertrophy 18 days after intramuscular injection of peptides in dystrophic mdx mice; type: in vivo; settings: for Hypertrophy %: 18 days after IM injection, average of five mdx mice, TAG versus TAD; for increase in muscular hypertrophy, factor compared to decorin: day 18, mdx mice
# Experimental: as §1, §2
# The peptide fibromodulin (Fmod, SEQ ID NO: 2) and lumican (mLumican, SEQ ID NO: 5) were dissolved in water and stored at −80° C. For the injections, the preparation procedure is as follows: 24-40 hours before the injection, the desired quantity of peptide is removed from the stock solution and mixed with a solution of zinc chloride (ZnCl2) and 150 mM NaCl so as to have a final concentration of 15 μM of zinc. The peptide was stored at 4° C. until injection.
# 4/In vivo Comparative Study of Muscle Hypertrophy 18 Days after Injection of Dystrophic mdx Mice with Decorin Peptide (MdCN 31-71, SEQ ID NO: 75), Fibromodulin (mFmod 69-101) or lumican (mLum 30-62):
# The TAD and TAG muscles were removed 18 days after injection of the peptides, and then weighed. The experiment was performed on five separate mice.
substance,measurement,setting,value
Biotine-PPPEPRDCPQEADAPPNFPTAMYADNRNLKYLP- CONH2 [mutated biotin mFmod peptide],interaction with myostatin (absorbence at 450 nm),mature myostatin; in the presence of zinc,no interaction is visible
Biotine-PPPEPRDCPQECDCPPNFPTAMYCDNRNLKYLP-CONH2 [biotinylated mFmod 69-101],interaction with myostatin (absorbence at 450 nm),mature myostatin; in the presence of zinc,direct interaction takes place
"PPPEPRDCPQECDCPPNFPTAMYCDNRNLKYLP (69-101 mouse fibromodulin Fmod) [mFmod 69-101, fragment corresponding to residues 69-101 of murine fibromodulin]",induction of the pCAGA-Luc promoter (inhibition of myostatin activity),[1],net inhibition of the promoter in a dose-dependent manner
same,interaction with myostatin (absorbence at 450 nm),mature myostatin; in the absence of zinc,no interaction is seen
same,amount of peptide from which a plateau of absorbence is obtained,mature myostatin; in the presence of zinc,≥ 4.2 µg
same,Weight of injected muscle (TAG),mdx mice [2]; 50 μg peptide + 15 μM ZnCl2 IM in left Tibialis Anterior,66.5 mg and 75.4 mg and 74.6 mg and 65.2 mg and 73.9 mg
same,Growth (TAG versus control TAD),mdx mice [2]; 50 μg peptide + 15 μM ZnCl2 IM,22.24% and 5.31% and 19.94% and 5.33% and 12.31%
same,Hypertrophy %,mdx mice [3],29.34 ± 15.76%
same,"increase in muscular hypertrophy, factor compared to decorin",mdx mice [3],2.9
"YGQISPNCAPECNCPHSYPTAMYCDDLKLKSVP (30-62 mouse lumican) [mLum 30-62, fragment corresponding to residues 30 to 62 of murin lumican]",induction of the pCAGA-Luc promoter (inhibition of myostatin activity),[1],net inhibition of the promoter in a dose-dependent manner
same,Hypertrophy %,mdx mice [3],37.26 ± 14.69%
same,"increase in muscular hypertrophy, factor compared to decorin",mdx mice [3],3.7
"mDCN 31-71: Decorin Peptide (MdCN 31-71, SEQ ID NO: 75), comparator from prior art WO 2010/106295 (DEASGIIPYDPDNPLISMCPYRCQCHLRVVQCSDLGLDKVP; 31-71 mouse decorin fragment) [reference compound]",Hypertrophy %,mdx mice [3],10.02 ± 8.3%
